target: T1, E. coli DdlB enzyme (D-alanine:D-alanine ligase) (Escherichia coli, UniProt P07862); test: biochemical; settings: residual activity; tested concentration 2.2 mM; read-out: DdlB RA
T1 construct: made in house; host or cells: E. coli

SMILES	remaining activity at 2200 µM [%]
CC1(CNC(=O)c2ccccc2Cl)CCOCC1 [Compound P970-0504]	94
Cn1nccc1C(=O)N1CCC(Nc2cccnc2)C1 (centres unmarked) [Compound S059-0159]	85
NC(=O)CN1C(=O)C2(CCCCC2)C1c1ccccc1 (centres unmarked) [Compound S642-0104]	96
O=C(c1ccoc1)N1C[C@@H](CO)[C@H](c2ccncc2)C1 [Compound S824-2534]	95

same assay, conditions: residual activity; tested concentration 2.3 mM; read-out: DdlB RA

SMILES	remaining activity at 2300 µM [%]
CNC(=O)NCCc1c[nH]c2ncccc12 [Compound M509-0295]	80
Cc1ccc(C(=O)N(C)CC2(C)CCOCC2)cn1 [Compound P970-1095]	94
CC(C)C(=O)N1CC(n2cc(C(=O)N(C)C)nn2)C1 [Compound S724-0111]	97

same assay, conditions: tested concentration 1.7 mM; read-out: DdlB RA

SMILES	remaining activity at 1700 µM [%]
Cc1cccc(Cc2n[nH]c(CC(=O)NC3CCCC3)n2)c1 [Compound P496-1655]	97
O=S(=O)(c1c[nH]c2ncccc12)N1CCc2ccccc21 [Compound P633-0115]	83
c1cnc(-c2nc(C3CCNC3)no2)cn1 (centres unmarked) [Compound S069-3207]	95
Cc1nc(N2CCC(C(=O)O)CC2)cc(C(F)(F)F)n1 [Compound S553-0322]	105

same assay, conditions: tested concentration 1.8 mM; read-out: DdlB RA

SMILES	remaining activity at 1800 µM [%]
O=c1[nH]c2ccc(S(=O)(=O)N3CCCCC3)cc2o1 [Compound K893-0198]	100

same assay, conditions: tested concentration 1.9 mM; read-out: DdlB RA

SMILES	remaining activity at 1900 µM [%]
CCc1cc(C2CCCN2S(=O)(=O)CC)on1 (centres unmarked) [Compound J005-1008]	98
Cc1cccc(Nc2ncccc2S(N)(=O)=O)c1 [Compound M784-3114]	94
Cc1ccc(Nc2ncccc2S(N)(=O)=O)cc1 [Compound M784-3115]	85
COCC1CN(C(C)=O)CC12CCNCC2 (centres unmarked) [Compound S635-3083]	93
CCn1nccc1C(=O)N1CC(n2ccnc2C)C1 [Compound S695-2086]	95

same assay, conditions: tested concentration 2.0 mM; read-out: DdlB RA

SMILES	remaining activity at 2000 µM [%]
CCC(=O)N1CCC(CC(=O)N2CCOCC2)C1 (centres unmarked) [Compound S421-0882]	70
CCOc1ccc2c(n1)CCN(C(=O)C1CC1)C2 [Compound S422-0032]	97
CC(C)C(=O)N1CCC2(CCNC(=O)CC2)CC1 [Compound S509-1270]	93
CCn1cnnc1-c1nn(C)c2c1CNCC2 [Compound S565-0571]	89
CCS(=O)(=O)N1CCC2(CCC2OC)CC1 (centres unmarked) [Compound S664-0247]	92

same assay, conditions: tested concentration 2.1 mM; read-out: DdlB RA

SMILES	remaining activity at 2100 µM [%]
Cc1nc2ccccc2c(O)c1S(=O)(=O)O [Compound L150-1119]	90
Cn1ncc(N2CCC[C@@H](C(=O)O)C2)cc1=O [Compound P207-8929]	92
CN1CCC(Oc2ncccc2C(=O)O)CC1 [Compound P391-0905]	92

same assay, conditions: tested concentration 2.2 mM; read-out: DdlB RA

SMILES	remaining activity at 2200 µM [%]
CCOc1c(NC2CCCCC2)c(=O)c1=O [Compound K906-2368]	76
CCOc1c(N2CCC(C)CC2)c(=O)c1=O [Compound K906-2369]	71
CN1CCC2(CC1)CNCc1ccccc1O2 [Compound S530-0066]	94

same assay, conditions: tested concentration 2.3 mM; read-out: DdlB RA

SMILES	remaining activity at 2300 µM [%]
O=c1c(N2CCCC2)c(N2CCCC2)c1=O [Compound K906-4052]	98

same assay, conditions: tested concentration 2.4 mM; read-out: DdlB RA

SMILES	remaining activity at 2400 µM [%]
NS(=O)(=O)c1cccc2cccnc12 [Compound R005-0042]	88
Cc1ccc(C)c(C(=O)N(C)CC2CCOC2)c1 (centres unmarked) [Compound S213-1736]	99

same assay, conditions: tested concentration 2.5 mM; read-out: DdlB RA

SMILES	remaining activity at 2500 µM [%]
CN(CC1CCOC1)C(=O)NC1CCCCC1 (centres unmarked) [Compound S213-1594]	91
CCc1nc(N2CCOCC2)ncc1C(=O)O [Compound S272-0074]	91

same assay, conditions: tested concentration 2.6 mM; read-out: DdlB RA

SMILES	remaining activity at 2600 µM [%]
O=C1CC(C(=O)O)c2ccccc2N1 (centres unmarked) [Compound K784-1648]	87
Cc1ccc2cc(CCC(=O)O)c(O)nc2c1 [Compound P207-8939]	93
O=C(Cc1ccccc1)NCC1CCOCC1 [Compound P970-0162]	92
Cc1cnc(C)n1CCNC(=O)C1CC=CC1 [Compound S751-1890]	98

same assay, conditions: tested concentration 2.7 mM; read-out: DdlB RA

SMILES	remaining activity at 2700 µM [%]
CN1CCCCC(CC(=O)O)C1=O (centres unmarked) [Compound S581-1125]	95

same assay, conditions: tested concentration 2.8 mM; read-out: DdlB RA

SMILES	remaining activity at 2800 µM [%]
O=C1NC(C(=O)O)Cn2cccc21 (centres unmarked) [Compound S531-0139]	90

same assay, conditions: tested concentration 2.9 mM; read-out: DdlB RA

SMILES	remaining activity at 2900 µM [%]
CC(C)(C(=O)O)C1CCOCC1 [Compound S424-0502]	98
CC1(C(=O)O)CCCCC(=O)N1 (centres unmarked) [Compound S515-0278]	93

From article PMC9718554, “Discovery of a fragment hit compound targeting D-Ala:D-Ala ligase of bacterial peptidoglycan biosynthesis” (Journal of Enzyme Inhibition and Medicinal Chemistry, 2022)
